Data: article PMC7531004, “Discovery of gramicidin A analogues with altered activities by multidimensional screening of a one-bead-one-compound library” (Nature Communications, 2020)
Where a SMILES comes first, the peptide text is derived from it. [ ]: non-standard residue; d: D form. The star is where a group is joined. NHCH2CH2OH = OCCN*; For = O=C*

Experiments:
[1] = cell viability/%
In short: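 Peptide stocks diluted 250× in growth medium; P388 cells 1 × 10^4 cells/mL final; 37 °C, 5% CO2, 92 h. WST-1 + 1-methoxy PMS, 4 h, A415. Output: % viability.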

[2] = H+/Na+ transport assay of bead-derived peptides (one-point); format: biochemical; set-up: key: relative activity; mean of two control wells = 1.00; details: bead-derived peptide solution, EYPC/EYPG LUVs;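 note: relative to parent gramicidin A activity set to 1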
In short: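 One-point screen: peptide + pyranine-loaded LUVs, 30 min RT with vortexing, 96-well. Read-out is fluorescence intensity scaled as 100 × (Ix – I0)/(Imax – I0). Imax from Triton X-100, I0 from untreated vesicles, and the mean of the two control wells is set to 1.00.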

[3] = test system: Streptococcus pyogenes SSI-9; test: Antibacterial activity assay of bead-derived peptides (three concentrations); format: cell-based; set-up: key: +++: inhibition by the 640-fold diluted peptide solution; ++: inhibition by the 160-fold diluted solution; +: inhibition by the 40-fold diluted solution; -: no inhibition; details: S. pyogenes, bead-derived peptide solution, three concentrations
In short: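 First, each peptide stock was diluted 4- and 16-fold in DMSO; next, the three solutions were mixed with S. pyogenes SSI-9 suspension (2 × 10^5 CFU) in cation-adjusted Mueller Hinton Broth plus 5% laked horse blood; finally, plates stood 18 h at 37 °C before checking for grown-cell precipitation.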

Structure (SMILES) | viability [1] [%] | H+/Na+ transport activity normalized against the value of 1 (1.00) [2] | antibacterial activity [3]
CC(C)C[C@@H](NC(=O)[C@H](Cc1c[nH]c2ccccc12)NC(=O)[C@H](NC(=O)[C@H](Cc1c[nH]c2ccccc12)NC(=O)[C@@H](CC(C)C)NC(=O)[C@H](Cc1c[nH]c2ccccc12)NC(=O)[C@@H](CC(C)C)NC(=O)[C@@H](NC(=O)[C@H](NC(=O)[C@H](C)NC(=O)[C@H](NC(=O)[C@H](C)NC(=O)CNC(=O)[C@@H](NC=O)C(C)C)C(C)C)[C@H](C)O)C(C)C)C(C)C)C(=O)N[C@@H](Cc1c[nH]c2ccccc12)C(=O)NCCO [compound 10686] (For-VGA[dV]A[dT]V[dL]W[dL]W[dV]W[dL]W-NHCH2CH2OH) | 100 | 1.05 | -
CNC(=O)C[C@@H](NC(=O)[C@H](Cc1c[nH]c2ccccc12)NC(=O)[C@@H](CC(C)C)NC(=O)[C@@H](NC(=O)[C@@H](CC(C)C)NC(=O)[C@H](C)NC(=O)[C@H](NC(=O)[C@H](C)NC(=O)CNC(=O)[C@@H](NC=O)C(C)C)C(C)C)C(C)C)C(=O)N[C@@H](Cc1c[nH]c2ccccc12)C(=O)N[C@@H](C(=O)N[C@@H](Cc1c[nH]c2ccccc12)C(=O)N[C@@H](C(=O)N[C@@H](Cc1c[nH]c2ccccc12)C(=O)NCCO)C(C)C)C(C)C [compound 1152] (For-VGA[dV]A[dL]V[dL]W[dD](NHMe)W[dV]W[dV]W-NHCH2CH2OH) | 100 | 1.05 | -
CC(C)C[C@@H](NC(=O)[C@H](C)NC(=O)CNC(=O)[C@@H](NC=O)C(C)C)C(=O)N[C@@H](C)C(=O)N[C@H](CC(C)C)C(=O)N[C@H](C(=O)N[C@H](CC(C)C)C(=O)N[C@@H](Cc1c[nH]c2ccccc12)C(=O)N[C@H](CC(C)C)C(=O)N[C@@H](Cc1c[nH]c2ccccc12)C(=O)N[C@@H](C(=O)N[C@@H](Cc1c[nH]c2ccccc12)C(=O)N[C@@H](C(=O)N[C@@H](Cc1c[nH]c2ccccc12)C(=O)NCCO)[C@H](C)O)C(C)C)C(C)C [compound 7512] (For-VGA[dL]A[dL]V[dL]W[dL]W[dV]W[dT]W-NHCH2CH2OH) | 100 | 1.05 | -
CC(C)C[C@@H](NC(=O)[C@H](C)NC(=O)[C@H](NC(=O)[C@H](C)NC(=O)CNC(=O)[C@@H](NC=O)C(C)C)C(C)C)C(=O)N[C@H](C(=O)N[C@@H](C(=O)N[C@@H](Cc1c[nH]c2ccccc12)C(=O)N[C@H](CC(C)C)C(=O)N[C@@H](Cc1c[nH]c2ccccc12)C(=O)N[C@@H](C(=O)N[C@@H](Cc1c[nH]c2ccccc12)C(=O)N[C@H](CC(C)C)C(=O)N[C@@H](Cc1c[nH]c2ccccc12)C(=O)NCCO)C(C)C)[C@H](C)O)C(C)C [compound 6842] (For-VGA[dV]A[dL]V[dT]W[dL]W[dV]W[dL]W-NHCH2CH2OH) | 100 | 1.14 | -
CC(C)C[C@@H](NC(=O)[C@H](C)NC(=O)CNC(=O)[C@@H](NC=O)C(C)C)C(=O)N[C@@H](C)C(=O)N[C@H](CC(C)C)C(=O)N[C@H](C(=O)N[C@@H](C(=O)N[C@@H](Cc1c[nH]c2ccccc12)C(=O)N[C@@H](C(=O)N[C@@H](Cc1c[nH]c2ccccc12)C(=O)N[C@H](CC(C)C)C(=O)N[C@@H](Cc1c[nH]c2ccccc12)C(=O)N[C@H](CC(C)C)C(=O)N[C@@H](Cc1c[nH]c2ccccc12)C(=O)NCCO)C(C)C)[C@H](C)O)C(C)C [compound 1631] (For-VGA[dL]A[dL]V[dT]W[dV]W[dL]W[dL]W-NHCH2CH2OH) | 100 | 1.04 | -
CC(C)C[C@@H](NC(=O)[C@H](C)NC(=O)[C@H](NC(=O)[C@H](C)NC(=O)CNC(=O)[C@@H](NC=O)C(C)C)C(C)C)C(=O)N[C@H](C(=O)N[C@H](CC(C)C)C(=O)N[C@@H](Cc1c[nH]c2ccccc12)C(=O)N[C@@H](C(=O)N[C@@H](Cc1c[nH]c2ccccc12)C(=O)N[C@@H](C(=O)N[C@@H](Cc1c[nH]c2ccccc12)C(=O)N[C@H](CC(C)C)C(=O)N[C@@H](Cc1c[nH]c2ccccc12)C(=O)NCCO)C(C)C)[C@H](C)O)C(C)C [compound 5572] (For-VGA[dV]A[dL]V[dL]W[dT]W[dV]W[dL]W-NHCH2CH2OH) | 100 | 1.24 | +
CC(C)C[C@@H](NC(=O)[C@H](C)NC(=O)CNC(=O)[C@@H](NC=O)C(C)C)C(=O)N[C@@H](C)C(=O)N[C@H](CC(C)C)C(=O)N[C@H](C(=O)N[C@@H](C(=O)N[C@@H](Cc1c[nH]c2ccccc12)C(=O)N[C@@H](C(=O)N[C@@H](Cc1c[nH]c2ccccc12)C(=O)N[C@H](CC(C)C)C(=O)N[C@@H](Cc1c[nH]c2ccccc12)C(=O)N[C@@H](C(=O)N[C@@H](Cc1c[nH]c2ccccc12)C(=O)NCCO)[C@H](C)O)C(C)C)C(C)C)C(C)C [compound 9823] (For-VGA[dL]A[dL]V[dV]W[dV]W[dL]W[dT]W-NHCH2CH2OH) | 100 | 1.08 | -
CC(C)[C@H](NC=O)C(=O)NCC(=O)N[C@@H](C)C(=O)N[C@@H](C(=O)N[C@@H](C)C(=O)N[C@@H](C(=O)N[C@H](C(=O)N[C@@H](C(=O)N[C@@H](Cc1c[nH]c2ccccc12)C(=O)N[C@@H](C(=O)N[C@@H](Cc1c[nH]c2ccccc12)C(=O)N[C@@H](C(=O)N[C@@H](Cc1c[nH]c2ccccc12)C(=O)N[C@@H](C(=O)N[C@@H](Cc1c[nH]c2ccccc12)C(=O)NCCO)C(C)C)C(C)C)[C@H](C)O)C(C)C)C(C)C)C(C)C)C(C)C [compound 532] (For-VGA[dV]A[dV]V[dV]W[dT]W[dV]W[dV]W-NHCH2CH2OH) | 100 | 1.03 | -
CC(C)C[C@@H](NC(=O)[C@H](C)NC(=O)CNC(=O)[C@@H](NC=O)C(C)C)C(=O)N[C@@H](C)C(=O)N[C@@H](C(=O)N[C@H](C(=O)N[C@H](CC(C)C)C(=O)N[C@@H](Cc1c[nH]c2ccccc12)C(=O)N[C@@H](C(=O)N[C@@H](Cc1c[nH]c2ccccc12)C(=O)N[C@H](CC(C)C)C(=O)N[C@@H](Cc1c[nH]c2ccccc12)C(=O)N[C@H](CC(C)C)C(=O)N[C@@H](Cc1c[nH]c2ccccc12)C(=O)NCCO)C(C)C)C(C)C)[C@H](C)O [compound 611] (For-VGA[dL]A[dT]V[dL]W[dV]W[dL]W[dL]W-NHCH2CH2OH) | 100 | 1.05 | -
CC(C)C[C@@H](NC(=O)[C@H](Cc1c[nH]c2ccccc12)NC(=O)[C@H](NC(=O)[C@@H](NC(=O)[C@H](NC(=O)[C@H](C)NC(=O)[C@H](NC(=O)[C@H](C)NC(=O)CNC(=O)[C@@H](NC=O)C(C)C)C(C)C)C(C)C)C(C)C)C(C)C)C(=O)N[C@@H](Cc1c[nH]c2ccccc12)C(=O)N[C@H](CC(C)C)C(=O)N[C@@H](Cc1c[nH]c2ccccc12)C(=O)N[C@@H](C(=O)N[C@@H](Cc1c[nH]c2ccccc12)C(=O)NCCO)C(C)C [compound 5742] (For-VGA[dV]A[dV]V[dV]W[dL]W[dL]W[dV]W-NHCH2CH2OH) | 11.1 | 1.16 | ++
CC(C)C[C@@H](NC(=O)[C@H](C)NC(=O)[C@H](NC(=O)[C@H](C)NC(=O)CNC(=O)[C@@H](NC=O)C(C)C)C(C)C)C(=O)N[C@H](C(=O)N[C@@H](C(=O)N[C@@H](Cc1c[nH]c2ccccc12)C(=O)N[C@@H](C(=O)N[C@@H](Cc1c[nH]c2ccccc12)C(=O)N[C@@H](C(=O)N[C@@H](Cc1c[nH]c2ccccc12)C(=O)N[C@H](CC(C)C)C(=O)N[C@@H](Cc1c[nH]c2ccccc12)C(=O)NCCO)C(C)C)[C@H](C)O)C(C)C)C(C)C [compound 12865] (For-VGA[dV]A[dL]V[dV]W[dT]W[dV]W[dL]W-NHCH2CH2OH) | 91.7 | 1.10 | -
CC(C)C[C@@H](NC(=O)[C@H](Cc1c[nH]c2ccccc12)NC(=O)[C@H](NC(=O)[C@H](Cc1c[nH]c2ccccc12)NC(=O)[C@@H](CC(C)C)NC(=O)[C@@H](NC(=O)[C@H](NC(=O)[C@H](C)NC(=O)[C@H](NC(=O)[C@H](C)NC(=O)CNC(=O)[C@@H](NC=O)C(C)C)[C@H](C)O)C(C)C)C(C)C)[C@H](C)O)C(=O)N[C@@H](Cc1c[nH]c2ccccc12)C(=O)N[C@@H](C(=O)N[C@@H](Cc1c[nH]c2ccccc12)C(=O)NCCO)C(C)C [compound 13245] (For-VGA[dT]A[dV]V[dL]W[dT]W[dL]W[dV]W-NHCH2CH2OH) | 100 | 1.07 | -
CNC(=O)C[C@@H](NC(=O)[C@@H](NC(=O)[C@H](NC(=O)[C@H](C)NC(=O)[C@@H](CC(C)C)NC(=O)[C@H](C)NC(=O)CNC(=O)[C@@H](NC=O)C(C)C)C(C)C)C(C)C)C(=O)N[C@@H](Cc1c[nH]c2ccccc12)C(=O)N[C@@H](C(=O)N[C@@H](Cc1c[nH]c2ccccc12)C(=O)N[C@H](CC(C)C)C(=O)N[C@@H](Cc1c[nH]c2ccccc12)C(=O)N[C@H](CC(C)C)C(=O)N[C@@H](Cc1c[nH]c2ccccc12)C(=O)NCCO)C(C)C [compound 2118] (For-VGA[dL]A[dV]V[dD](NHMe)W[dV]W[dL]W[dL]W-NHCH2CH2OH) | 100 | 1.26 | -
